# pIC50: −log10 of the molar value. The source made the active and inactive calls. No cut-off for these calls is given here.
# Experiments:
# Gamma-secretase [1] = test: Inhibition of gamma-secretase (unknown origin) expressed in N2a NL/N cells coexpressing betaAPPNL and NotchdeltaE assessed as Abeta42 secretion by ELISA; format: cell-based, Homo sapiens
# Gamma-secretase [2] = test: Inhibition of gamma-secretase (unknown origin) expressed in N2a NL/N cells coexpressing betaAPPNL and NotchdeltaE assessed as Abeta40 secretion by ELISA; format: cell-based, Homo sapiens
# [3] = target: T1, Gamma-secretase (Homo sapiens) (UniProt Q96BI3+Q9NZ42+Q8WW43+P49768+Q92542+P49810); test: Inhibition of gamma-secretase (unknown origin) expressed in N2a NL/N cells coexpressing betaAPPNL and NotchdeltaE assessed as Abeta42 secretion at 100 nM by ELISA; format: cell-based
# [4] = target: T1, Gamma-secretase (Homo sapiens); test: Inhibition of gamma-secretase (unknown origin) expressed in N2a NL/N cells coexpressing betaAPPNL and NotchdeltaE assessed as Abeta40 secretion at 100 nM by ELISA; format: cell-based
# [5] = target: T1, Gamma-secretase (Homo sapiens); test: Displacement of biotinylated PS1NTF from gamma-secretase (unknown origin); format: protein-complex assay
# [6] = target: T1, Gamma-secretase (Homo sapiens); test: Inhibition of gamma-secretase in human H4 glioma cells assessed as Abeta production at 0.1 to 10 µM by immunoblot analysis; format: cell-based
# [7] = target: T1, Gamma-secretase (Homo sapiens); test: Ratio of IC50 for gamma-secretase-mediated inhibition of notch intracellular cytoplasmic domain secretion to IC50 for gamma-secretase-mediated inhibition of Abeta42 secretion in human HEK293 cells expressing APPNL/NotchDeltaE/EGFP/UAS-firefly luciferase by ELISA; format: cell-based
# Gamma-secretase [8] = test: Inhibition of gamma-secretase in human HEK293 cells expressing APPNL/NotchDeltaE/EGFP/UAS-firefly luciferase assessed as inhibition of notch intracellular cytoplasmic domain secretion by ELISA; format: cell-based
# Gamma-secretase [9] = test: Inhibition of gamma-secretase in human HEK293 cells expressing APPNL/NotchDeltaE/EGFP/UAS-firefly luciferase assessed as inhibition of Abeta42 secretion by ELISA; format: cell-based
# Gamma-secretase [10] = test: Inhibition of gamma-secretase in human HEK293 cells expressing APPNL/NotchDeltaE/EGFP/UAS-firefly luciferase assessed as inhibition of IAbeta40 secretion by ELISA; format: cell-based
pIC50 (Gamma-secretase [1]),pIC50 (Gamma-secretase [2]),inhibition [3],inhibition [4],SMILES,further results
< 4.52,< 4.52,–,–,CC(=O)N1CCC[C@@H]1C(=O)N1CCC[C@@H]1C(=O)N1CCC[C@@H]1C(=O)N1CCC[C@@H]1C(=O)N1CCC[C@@H]1C(=O)N1CCC[C@@H]1C(=O)N1CCC[C@@H]1C(=O)N1CCC[C@@H]1C(=O)N1CCC[C@@H]1C(N)=O,–
< 4.52,< 4.52,–,–,CC(=O)N1CCC[C@H]1C(=O)N1CCC[C@H]1C(=O)N1CCC[C@H]1C(=O)N1CCC[C@H]1C(=O)N1CCC[C@H]1C(=O)N1CCC[C@H]1C(=O)N1CCC[C@H]1C(=O)N1CCC[C@H]1C(=O)N1CCC[C@H]1C(N)=O,–
< 4.52,< 4.52,–,–,CC(=O)N1CCC[C@H]1C(=O)N1CCC[C@H]1C(=O)N1CCC[C@H]1C(=O)N1CCC[C@H]1C(=O)N1CCC[C@H]1C(=O)N1CCC[C@H]1C(=O)N1CCC[C@H]1C(=O)N1CCC[C@H]1C(=O)N1CCC[C@H]1C(=O)N1CCC[C@H]1C(=O)N1CCC[C@H]1C(N)=O,–
< 4.52,< 4.52,–,–,CC(=O)N1CCC[C@@H]1C(=O)N1CCC[C@@H]1C(=O)N1CCC[C@@H]1C(=O)N1CCC[C@@H]1C(=O)N1CCC[C@@H]1C(=O)N1CCC[C@@H]1C(=O)N1CCC[C@@H]1C(=O)N1CCC[C@@H]1C(=O)N1CCC[C@@H]1C(=O)N1CCC[C@@H]1C(=O)N1CCC[C@@H]1C(N)=O,–
5.28,5.64,–,–,CC(=O)N[C@H]1CCC[C@@H]1C(=O)N[C@H]1CCC[C@@H]1C(=O)N[C@H]1CCC[C@@H]1C(=O)N[C@H]1CCC[C@@H]1C(=O)N[C@H]1CCC[C@@H]1C(=O)N[C@H]1CCC[C@@H]1C(=O)N[C@H]1CCC[C@@H]1C(=O)N[C@H]1CCC[C@@H]1C(=O)N[C@H]1CCC[C@@H]1C(=O)N[C@H]1CCC[C@@H]1C(N)=O,–
8.13,8.61,Active,Active,CC(=O)N[C@H]1CCC[C@@H]1C(=O)N[C@H]1CCC[C@@H]1C(=O)NCCC(=O)N[C@H]1CCC[C@@H]1C(=O)N[C@H]1CCC[C@@H]1C(=O)N[C@H]1CCC[C@@H]1C(=O)N[C@H]1CCC[C@@H]1C(=O)N[C@H]1CCC[C@@H]1C(=O)N[C@H]1CCC[C@@H]1C(=O)N[C@H]1CCC[C@@H]1C(=O)N[C@H]1CCC[C@@H]1C(=O)N[C@H]1CCC[C@@H]1C(N)=O,–
< 4.52,< 4.52,–,–,CC(=O)N1CCC[C@@H]1C(=O)N1CCC[C@@H]1C(=O)N1CCC[C@@H]1C(=O)N1CCC[C@@H]1C(=O)N1CCC[C@@H]1C(=O)N1CCC[C@@H]1C(N)=O,–
9.08,9.40,Active,Active,"CC(=O)N[C@H]1CCC[C@@H]1C(=O)N[C@H]1CCC[C@@H]1C(=O)NC(CO)CC(=O)N[C@H]1CCC[C@@H]1C(=O)N[C@H]1CCC[C@@H]1C(=O)N[C@H]1CCC[C@@H]1C(=O)N[C@H]1CCC[C@@H]1C(=O)N[C@H]1CCC[C@@H]1C(=O)N[C@H]1CCC[C@@H]1C(=O)N[C@H]1CCC[C@@H]1C(=O)N[C@H]1CCC[C@@H]1C(=O)N[C@H]1CCC[C@@H]1C(N)=O (single isomer, unassigned)",Activity [5]: Active; inhibition [6]: Active; Ratio IC50 [7]: 0.478; pIC50 (Gamma-secretase [8]): 7.38; pIC50 (Gamma-secretase [9]): 7.06; pIC50 (Gamma-secretase [10]): 7.07
6.65,6.61,–,–,CC(=O)N[C@H]1CCC[C@@H]1C(=O)N[C@H]1CCC[C@@H]1C(=O)N[C@H]1CCC[C@@H]1C(=O)N[C@H]1CCC[C@@H]1C(=O)N[C@H]1CCC[C@@H]1C(=O)N[C@H]1CCC[C@@H]1C(=O)N[C@H]1CCC[C@@H]1C(=O)N[C@H]1CCC[C@@H]1C(=O)N[C@H]1CCC[C@@H]1C(=O)N[C@H]1CCC[C@@H]1C(=O)N[C@H]1CCC[C@@H]1C(N)=O,–
8.00,8.06,–,–,CC(=O)N[C@H]1CCC[C@@H]1C(=O)N[C@H]1CCC[C@@H]1C(=O)N[C@H]1CCC[C@@H]1C(=O)N[C@H]1CCC[C@@H]1C(=O)N[C@H]1CCC[C@@H]1C(=O)N[C@H]1CCC[C@@H]1C(=O)N[C@H]1CCC[C@@H]1C(=O)N[C@H]1CCC[C@@H]1C(=O)N[C@H]1CCC[C@@H]1C(=O)N[C@H]1CCC[C@@H]1C(=O)N[C@H]1CCC[C@@H]1C(=O)N[C@H]1CCC[C@@H]1C(N)=O,Ratio IC50 [7]: 0.0326; pIC50 (Gamma-secretase [8]): 7.69; pIC50 (Gamma-secretase [9]): 6.20; pIC50 (Gamma-secretase [10]): 5.93
< 4.52,< 4.52,–,–,CC(=O)N1CCC[C@H]1C(=O)N1CCC[C@H]1C(=O)N1CCC[C@H]1C(=O)N1CCC[C@H]1C(=O)N1CCC[C@H]1C(=O)N1CCC[C@H]1C(N)=O,–
9.06,9.26,Active,Active,CC(=O)N[C@H]1CCC[C@@H]1C(=O)N[C@H]1CCC[C@@H]1C(=O)N[C@@H](CC(N)=O)CC(=O)N[C@H]1CCC[C@@H]1C(=O)N[C@H]1CCC[C@@H]1C(=O)N[C@H]1CCC[C@@H]1C(=O)N[C@H]1CCC[C@@H]1C(=O)N[C@H]1CCC[C@@H]1C(=O)N[C@H]1CCC[C@@H]1C(=O)N[C@H]1CCC[C@@H]1C(=O)N[C@H]1CCC[C@@H]1C(=O)N[C@H]1CCC[C@@H]1C(N)=O,Activity [5]: Active; inhibition [6]: Active; Ratio IC50 [7]: 0.0462; pIC50 (Gamma-secretase [8]): 8.50; pIC50 (Gamma-secretase [9]): 7.16; pIC50 (Gamma-secretase [10]): 7.07
–,–,inactive,inactive,CC(=O)N[C@H]1CCC[C@@H]1C(=O)N[C@H]1CCC[C@@H]1C(=O)N[C@@H](CC(=O)N[C@H]1CCC[C@@H]1C(=O)N[C@H]1CCC[C@@H]1C(=O)N[C@H]1CCC[C@@H]1C(=O)N[C@H]1CCC[C@@H]1C(=O)N[C@H]1CCC[C@@H]1C(=O)N[C@H]1CCC[C@@H]1C(=O)N[C@H]1CCC[C@@H]1C(=O)N[C@H]1CCC[C@@H]1C(=O)N[C@H]1CCC[C@@H]1C(N)=O)[C@@H](C)O,–
–,–,inactive,inactive,CC(=O)N[C@H]1CCC[C@@H]1C(=O)N[C@H]1CCC[C@@H]1C(=O)N[C@H]1CCC[C@@H]1C(=O)N[C@H]1CCC[C@@H]1C(=O)N[C@H]1CCC[C@@H]1C(=O)N[C@H]1CCC[C@@H]1C(=O)N[C@H]1CCC[C@@H]1C(=O)N[C@H]1CCC[C@@H]1C(=O)N[C@@H](CCCCN)CC(=O)N[C@H]1CCC[C@@H]1C(=O)N[C@H]1CCC[C@@H]1C(=O)N[C@H]1CCC[C@@H]1C(N)=O,–
6.38,6.69,–,–,O=S(=O)(N[C@H](CO)C(C(F)(F)F)C(F)(F)F)c1ccc(Cl)s1 [BEGACESTAT],–
–,–,inactive,inactive,CC(=O)N[C@H]1CCC[C@@H]1C(=O)N[C@H]1CCC[C@@H]1C(=O)N[C@H]1CCC[C@@H]1C(=O)N[C@H]1CCC[C@@H]1C(=O)N[C@H]1CCC[C@@H]1C(=O)N[C@H]1CCC[C@@H]1C(=O)N[C@H]1CCC[C@@H]1C(=O)N[C@H]1CCC[C@@H]1C(=O)N[C@H](CC(=O)N[C@H]1CCC[C@@H]1C(=O)N[C@H]1CCC[C@@H]1C(=O)N[C@H]1CCC[C@@H]1C(N)=O)Cc1ccc(O)cc1,–
–,–,inactive,inactive,CC(=O)N[C@H]1CCC[C@@H]1C(=O)N[C@H]1CCC[C@@H]1C(=O)N[C@H]1CCC[C@@H]1C(=O)N[C@H]1CCC[C@@H]1C(=O)N[C@H]1CCC[C@@H]1C(=O)N[C@H]1CCC[C@@H]1C(=O)N[C@H]1CCC[C@@H]1C(=O)N[C@H]1CCC[C@@H]1C(=O)N[C@@H](CCC(=O)O)CC(=O)N[C@H]1CCC[C@@H]1C(=O)N[C@H]1CCC[C@@H]1C(=O)N[C@H]1CCC[C@@H]1C(N)=O,–

# Reference: ChEMBL document CHEMBL2331477, “Effect of helical conformation and side chain structure on γ-secretase inhibition by β-peptide foldamers: insight into substrate recognition” (J Med Chem, 2013)
